Source: patent US20110009266A1, “Herbicidal Compositions Comprising Pyroxasulfone” (BASF SE, priority 2008, published 2011)
Read-outs that look alike come from different tables or passages of the source.

Tests used:
Assay type in all cases: in vivo
[1] = test system: GALAP (Galium aparine, cleaver); assay: greenhouse herbicidal activity on Galium aparine; conditions: Post-Emergence, 20 DAT
From the text: (§1) For the post-emergence treatment, the test plants were first grown to a height of 3 to 20 cm, depending on the plant habit, and only then treated. Here, the herbicidal compositions were suspended or emulsified in water as distribution medium and sprayed using finely distributing nozzles.
(§2) The respective herbicides A and/or safener were formulated as 10% by weight strength suspension concentrate and introduced to the spray liquor with the amount of solvent system used for applying the active compound. Herbicide B and/or safener were used as commercially available formulations and introduced to the spray liquor with the amount of solvent system used for applying the active compound. In the examples, the solvent used was water.
(§3) 4-(3-trifluoromethylphenoxy)-2-(4-trifluoromethylphenyl)-pyrimidine was used as an aqueous suspension concentrate having an active ingredient concentration of 200 g/l.
(§4) The test period extended over 21 days. During this time, the plants were tended, and their response to the treatments with active compound was evaluated.
(§5) The evaluation for the damage caused by the chemical compositions was carried out using a scale from 0 to 100%, compared to the untreated control plants. Here, 0 means no damage and 100 means complete destruction of the plants.
(§6) The value E, which is to be expected if the activity of the individual compounds is just additive, was calculated using the method of S. R. Colby (1967) “Calculating synergistic and antagonistic responses of herbicide combinations”, Weeds 15, p. 22 ff.
(§7) where X=effect in percent using herbicide A at an application rate a; • Y=effect in percent using herbicide B at an application rate b; • E=expected effect (in %) of A+B at application rates a+b.
(§8) If the value observed in this manner is higher than the value E calculated according to Colby, a synergistic effect is present.

[2] = test system: LOLMU (Lolium multiflorum, italian ryegrass); assay: greenhouse herbicidal activity on Lolium multiflorum; conditions: Post-Emergence; for inhibition at 13 g/ha / inhibition at 50 g/ha: Lolium multiflorum; for inhibition at 50 g/ha: 50 g ai/ha
From the text: as §1, §2
(§9) Picolinafen was used as a commercial wettable granule formulation having an active ingredient content of 75% by weight.
as §3, §4, §5, §6, §7, §8

[3] = test system: ALOMY (Alopecurus myosuroides, blackgrass); assay: greenhouse herbicidal activity on Alopecurus myosuroides; conditions: Post-Emergence, 20 DAT
From the text: as §1
as §2, with “water. […]” for “water.”
(§10) The test period extended over 21 days. During this time, the plants were tended, and their response to the treatments with active compound was evaluated. […]
(§11) The value E, which is to be expected if the activity of the individual compounds is just additive, was calculated using the method of S. R. Colby (1967) “Calculating synergistic and antagonistic responses of herbicide combinations”, Weeds 15, p. […]
as §8

[4] = test system: STEME (Stellaria media, chickweed); assay: greenhouse herbicidal activity on Stellaria media; conditions: Post-Emergence; for inhibition at 50 g/ha: Stellaria media
From the text: as §1, §2, §9, §3, §4, §5, §6, §7, §8

[5] = test system: VERPE (Veronica persica, field speedwell); assay: greenhouse herbicidal activity on Veronica persica; conditions: Post-Emergence, 20 DAT
From the text: as §1
as §2, with “water. […]” for “water.”
as §10, §11, §8

[6] = test system: PHACA (Phalaris canariensis, canarygrass); assay: greenhouse herbicidal activity on Phalaris canariensis; conditions: Post-Emergence; for inhibition at 50 g/ha / inhibition at 100 g/ha: Phalaris canariensis; for inhibition at 50 g/ha: 50 g ai/ha; for inhibition at 100 g/ha: 100 g ai/ha
From the text: as §1, §2, §9, §4, §5, §6, §7, §8

[7] = 192 h, 8 DAT, read-out: observed % activity 8 DAT
[8] = 480 h, 20 DAT, read-out: observed % activity 20 DAT

## FC(F)(F)c1ccc(-c2nccc(Oc3cccc(C(F)(F)F)c3)n2)cc1 [Compound B, 4-(3-trifluoromethylphenoxy)-2-(4-trifluoromethylphenyl)-pyrimidine]
[1]; 31 g ai/ha
  observed activity in % destruction 20 days after treatment: 85%
[1]; 63 g ai/ha
  observed activity in % destruction 20 days after treatment: 85%
[2]; 63 g ai/ha, 20 DAT
  observed activity in % destruction 20 days after treatment: 50%
[2]; 125 g ai/ha, 20 DAT
  observed activity in % destruction 20 days after treatment: 70%
[3]; 16 g ai/ha
  observed activity in % destruction 20 days after treatment: 15%
[4]; 16 g ai/ha, 20 DAT
  observed activity in % destruction 20 days after treatment: 95%
[4]; 31 g ai/ha, 20 DAT
  observed activity in % destruction 20 days after treatment: 95%
[5]; 31 g ai/ha
  observed activity in % destruction 20 days after treatment: 98%

## O=C(Nc1ccc(F)cc1)c1cccc(Oc2cccc(C(F)(F)F)c2)n1 [picolinafen]
[2]; 25 g ai/ha, 8 DAT
  observed % activity 8 DAT: 0%
[2]; 25 g ai/ha, 20 DAT
  observed % activity 20 DAT: 20%
[4]; 13 g ai/ha, 8 DAT
  observed % activity 8 DAT: 60%
[4]; 13 g ai/ha, 20 DAT
  observed % activity 20 DAT: 90%
[6]; 13 g ai/ha, 8 DAT
  observed % activity 8 DAT: 10%
[6]; 13 g ai/ha, 20 DAT
  observed % activity 20 DAT: 30%

## Cn1nc(C(F)(F)F)c(CS(=O)(=O)C2=NOC(C)(C)C2)c1OC(F)F [pyroxasulfone, 3-[5-(difluoromethoxy)-1-methyl-3-(trifluoromethyl)pyrazol-4-ylmethylsulfonyl]-4,5-dihydro-5,5-dimethyl-1,2-oxazole]
[1]; 25 g ai/ha
  observed activity in % destruction 20 days after treatment: 90%
[1]; 50 g ai/ha
  observed activity in % destruction 20 days after treatment: 90%
[1]; 100 g ai/ha
  observed activity in % destruction 20 days after treatment: 95%
[2]; 192 h, 13 g ai/ha, 8 DAT, read-out: observed % activity 8 DAT
  inhibition at 13 g/ha: 40%
[2]; [7]
  inhibition at 50 g/ha: 50%
[2]; 480 h, 13 g ai/ha, 20 DAT, read-out: observed % activity 20 DAT
  inhibition at 13 g/ha: 50%
[2]; [8]
  inhibition at 50 g/ha: 85%
[2]; 13 g ai/ha, 20 DAT (Table 2)
  observed activity in % destruction 20 days after treatment: 50%
[2]; 25 g ai/ha, 20 DAT (Table 2)
  observed activity in % destruction 20 days after treatment: 75%
[3]; 100 g ai/ha
  observed activity in % destruction 20 days after treatment: 90%
[4]; 25 g ai/ha, 20 DAT
  observed activity in % destruction 20 days after treatment: 80%
[4]; 50 g ai/ha, 20 DAT (Table 2)
  observed activity in % destruction 20 days after treatment: 85%
[4]; 192 h, 50 g ai/ha, 8 DAT, read-out: observed % activity 8 DAT
  inhibition at 50 g/ha: 70%
[4]; 480 h, 50 g ai/ha, 20 DAT, read-out: observed % activity 20 DAT
  inhibition at 50 g/ha: 85%
[5]; 25 g ai/ha
  observed activity in % destruction 20 days after treatment: 60%
[6]; [7]
  inhibition at 50 g/ha: 55%
  inhibition at 100 g/ha: 60%
[6]; [8]
  inhibition at 50 g/ha: 90%
  inhibition at 100 g/ha: 90%
